In patent publication US8415469B2, “Compounds and methods for kinase modulation, and indications therefor” (Plexxikon Inc., priority 2005, dated 2013):

Key:
Type in all cases: biochemical
Itk = molecular target: T1, Itk (Homo sapiens, UniProt Q08881); assay: AlphaScreen kinase assay, Itk; conditions: read-out: IC50, activity toward kinase Itk
T1 sequence (Q08881 1-620): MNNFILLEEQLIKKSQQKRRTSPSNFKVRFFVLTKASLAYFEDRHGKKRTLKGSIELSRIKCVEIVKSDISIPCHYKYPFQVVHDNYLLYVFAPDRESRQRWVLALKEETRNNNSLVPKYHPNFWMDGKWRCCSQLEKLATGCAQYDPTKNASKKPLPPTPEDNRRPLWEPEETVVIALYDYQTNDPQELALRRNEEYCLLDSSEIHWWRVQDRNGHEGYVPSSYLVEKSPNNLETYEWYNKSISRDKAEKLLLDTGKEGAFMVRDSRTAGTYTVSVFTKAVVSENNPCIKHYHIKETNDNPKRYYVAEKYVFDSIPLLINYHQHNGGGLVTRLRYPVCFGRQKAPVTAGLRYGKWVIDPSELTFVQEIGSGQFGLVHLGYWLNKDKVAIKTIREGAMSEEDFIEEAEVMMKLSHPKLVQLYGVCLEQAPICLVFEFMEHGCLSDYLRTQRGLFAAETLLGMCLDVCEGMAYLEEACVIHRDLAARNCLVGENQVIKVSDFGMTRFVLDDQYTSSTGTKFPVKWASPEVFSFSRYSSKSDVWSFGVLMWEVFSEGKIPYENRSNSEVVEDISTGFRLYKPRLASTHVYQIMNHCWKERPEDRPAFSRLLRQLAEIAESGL
From the text: AlphaScreen assay was used to screen additional kinases. The assay is similarly dependent on the phosphorylation of a peptide substrate. In this assay, an antibody that recognizes phosphorylated substrate is bound to an acceptor bead. The peptide substrate is attached to biotin, which binds to a donor head that contains streptavidin. Thus phosphorylated substrate is bound by antibody and streptavidin, bringing the donor and acceptor heads into close proximity when kinase is not inhibited. The donor produces singlet oxygen which results in emission from the acceptor when they are in close proximity. Conversely, when kinase is inhibited, the donor and acceptor beads are not associated and the emission from the acceptor is reduced.
AlphaScreen assays were done using compounds dissolved in DMSO to a concentration of 20 mM. The compounds were diluted accordingly to the desired final concentrations in each sample well, using 1:3 serial dilution for a total of 8 concentration points.

B-Raf V600E = molecular target: T2, B-Raf V600E (Homo sapiens, UniProt P15056, V600E); assay: AlphaScreen kinase assay, B-Raf V600E; conditions: read-out: IC50, activity toward kinase B-Raf V600E
T2 construct: P4254. pFastBacBD-CDC37 BRAF D437-K722-X, V600E; His6 with pFastBac HT leader (TEV site) (N); made in house; host or cells: Sf9 (baculovirus; chaperone CDC37 co-expressed)

Kdr = molecular target: T3, Kdr (Homo sapiens, UniProt P35968); assay: Z'-Lyte FRET kinase assay (Invitrogen), Kdr; conditions: read-out: IC50, activity toward kinase Kdr
T3 construct: purchased Invitrogen (assay run by Invitrogen)

IKK beta = molecular target: T4, IKK beta (Homo sapiens, UniProt O14920); assay: AlphaScreen kinase assay, IKK beta; conditions: read-out: IC50, activity toward kinase IKK beta
T4 sequence (O14920 1-756): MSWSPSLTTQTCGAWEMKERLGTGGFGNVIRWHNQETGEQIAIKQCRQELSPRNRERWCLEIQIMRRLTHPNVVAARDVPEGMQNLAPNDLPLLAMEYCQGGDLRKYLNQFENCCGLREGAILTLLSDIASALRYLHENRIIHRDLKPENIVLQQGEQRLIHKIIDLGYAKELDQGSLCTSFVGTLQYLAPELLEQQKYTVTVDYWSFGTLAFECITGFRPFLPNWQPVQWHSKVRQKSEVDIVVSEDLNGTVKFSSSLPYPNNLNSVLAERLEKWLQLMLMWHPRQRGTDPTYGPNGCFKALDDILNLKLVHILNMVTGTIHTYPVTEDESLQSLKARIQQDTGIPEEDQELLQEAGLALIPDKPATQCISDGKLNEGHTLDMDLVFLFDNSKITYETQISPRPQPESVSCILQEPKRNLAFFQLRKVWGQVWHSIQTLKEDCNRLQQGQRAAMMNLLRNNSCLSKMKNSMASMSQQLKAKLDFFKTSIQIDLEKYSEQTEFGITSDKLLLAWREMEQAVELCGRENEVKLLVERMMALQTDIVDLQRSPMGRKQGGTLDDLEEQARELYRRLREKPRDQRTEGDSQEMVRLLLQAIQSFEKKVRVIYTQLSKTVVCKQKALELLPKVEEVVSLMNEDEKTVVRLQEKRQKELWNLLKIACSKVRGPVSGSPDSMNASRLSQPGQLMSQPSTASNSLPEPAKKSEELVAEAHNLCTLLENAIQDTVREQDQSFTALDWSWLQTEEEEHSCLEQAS

PKC theta = molecular target: T5, PKC theta (Homo sapiens, UniProt Q04759); assay: Z'-Lyte FRET kinase assay (Invitrogen), PKC theta; conditions: read-out: IC50, activity toward kinase PKC theta
T5 construct: purchased Invitrogen (Carlsbad, Calif.), screening service
From the text: The effect of potential modulators of kinase activity can be measured in a variety of different assays known in the art. For example, direct radiometric, indirect FRET or AlphaScreen assays may be used to assess the level of phosphorylation of a substrate in the presence of test compounds in order to determine the inhibitory affect of the compound on the kinase. Invitrogen (Carlsbad, Calif.) uses a FRET based assay for Btk, EGFR, EphB2, Flt3, lrak4, Kdr, MAP2K1, MAPKAPK2, PDGFRB, PKC theta, Stk6 and Yes. For these assays, compounds of the invention were screened by Invitrogen using Z′-Lyte™ kinase assay.
Briefly, the Invitrogen kinase assay involves use of a specific peptide substrate optimized for each kinase, containing a fluorophore at each end that make up the FRET pair. The peptide sensitivity to proteolytic cleavage depends on phosphorylation of the peptide. Non-phosphorylated peptide is cleaved by a protease while peptide phosphorylated by the kinase is not cleaved. Cleavage of the peptide disrupts the FRET between the donor (coumarin) and acceptor (fluorescein) fluorophores, resulting in an increase in the ratio of donor emission to acceptor emission. The emission ratio of coumarin to fluorescein is used to assess the reaction progress. The extent of phosphorylation is determined from the emission ratio, which is low when the kinase is active (phosphorylated peptide is not cleaved, FRET pair connected) or higher for inhibited kinase (non-phosphorylated peptide is cleaved, FRET pair separated). Thus, the assay involves a kinase reaction in the presence of varying concentrations of a given compound, a development reaction with site specific protease, and detection of the fluorescent emission ratio of coumarin and fluorscein. […] Reaction conditions for each kinase are determined to provide optimal reaction times, incubation temperature, kinase and ATP concentrations. Test samples are made up in 1× kinase buffer (50 mM HEPES pH 7.5, 50 mM MgCl2, 5 mM EGTA, 0.05% BRIJ-35) and compound at desired concentration prepared in DMSO such that the final DMSO is 1%. […] Typically, assay plates are prepared to 10 μl final volume per sample, adding 2.5 μl of compound at 4× the desired concentration in 4% DMSO (serial dilution of compound provides concentration curve), 5 μl of the desired kinase mixed with Z′-LYTE™ peptide substrate (2× in 2× kinase buffer, final peptide at 2 μM), and 2.5 μl of 4×ATP solution. All kinase except for MAP2K1 were at 10 μM ATP in the kinase reaction, while MAP2K1 was at 100 μM. Samples are mixed and the kinase reaction is incubated 1 hour at room temperature, after which 5 μl of development solution is added and mixed. After incubation for another 1 hour at room temperature, 5 μl of stop reagent is added to each sample and mixed. The fluorescence signals are measured to determine the emission ratio.

Akt3 = Akt3 (Homo sapiens, UniProt Q9Y243); assay: AlphaScreen kinase assay, Akt3; conditions: read-out: IC50, activity toward kinase Akt3
Procedure, shortened: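 Inhibition reads as diminished acceptor emission, since unphosphorylated peptide fails to bridge antibody acceptor beads and streptavidin donor beads. Titration: eight points, 1:3 steps, stocks at 20 mM in DMSO.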

B-Raf = molecular target: T6, B-Raf (Homo sapiens, UniProt P15056); assay: AlphaScreen kinase assay, B-Raf; conditions: read-out: IC50, activity toward kinase B-Raf
T6 construct: purchased Upstate Biotechnology

Pyk2 = molecular target: T7, Pyk2 (Homo sapiens, UniProt Q14289); assay: AlphaScreen kinase assay, Pyk2; conditions: read-out: IC50, activity toward kinase Pyk2
T7 construct: purchased Upstate Biotechnology

c-Raf-1 = molecular target: T8, c-Raf-1 (Homo sapiens, UniProt P04049); assay: AlphaScreen kinase assay, c-Raf-1; conditions: read-out: IC50, activity toward kinase c-Raf-1
T8 construct: purchased Upstate Biotechnology

Fms = molecular target: T9, Fms (Homo sapiens, UniProt P07333); assay: AlphaScreen kinase assay, Fms; conditions: read-out: IC50, activity toward kinase Fms
T9 construct: purchased Upstate Biotechnology

Stk6 = molecular target: T10, Stk6 (Homo sapiens, UniProt O14965); assay: Z'-Lyte FRET kinase assay (Invitrogen), Stk6; conditions: read-out: IC50, activity toward kinase Stk6
T10 construct: purchased Invitrogen (Carlsbad, Calif.), screening service
T10 sequence (O14965 1-403): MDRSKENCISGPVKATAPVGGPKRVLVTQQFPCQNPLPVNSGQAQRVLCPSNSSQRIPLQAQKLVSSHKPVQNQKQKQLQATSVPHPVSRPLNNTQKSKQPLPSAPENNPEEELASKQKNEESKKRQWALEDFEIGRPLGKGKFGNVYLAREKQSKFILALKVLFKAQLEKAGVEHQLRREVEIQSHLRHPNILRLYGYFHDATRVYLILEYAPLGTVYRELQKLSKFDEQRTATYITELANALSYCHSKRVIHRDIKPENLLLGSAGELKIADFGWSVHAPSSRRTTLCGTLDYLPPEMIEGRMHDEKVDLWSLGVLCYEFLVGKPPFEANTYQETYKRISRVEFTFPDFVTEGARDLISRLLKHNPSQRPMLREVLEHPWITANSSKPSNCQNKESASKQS

Kit = molecular target: T11, Kit (Homo sapiens, UniProt P10721); assay: AlphaScreen kinase assay, Kit; conditions: read-out: IC50, activity toward kinase Kit
T11 construct: P1332.N6 BI PTP KIT M552-K948-X COD; His6 (N); made in house; host or cells: E. coli (PTP1B co-expressed)

Jnk3 = molecular target: T12, Jnk3 (Homo sapiens, UniProt P53779); assay: AlphaScreen kinase assay, Jnk3; conditions: read-out: IC50, activity toward kinase Jnk3
T12 construct: purchased Upstate Biotechnology

FGFR1 = molecular target: T13, FGFR1 (Homo sapiens, UniProt P11362, C488A/C584S); assay: AlphaScreen kinase assay, FGFR1; conditions: read-out: IC50, activity toward kinase FGFR
T13 construct: P1351.pET N6 BI-PTP FGFR A458-E765-X C488A, C584S; made in house; host or cells: E. coli (PTP1B co-expressed)

Fak = molecular target: T14, Fak (Homo sapiens, UniProt Q05397); assay: AlphaScreen kinase assay, Fak; conditions: read-out: IC50, activity toward kinase Fak
T14 construct: P1358.pFastBacHtb FAK S411-Q686-X; His6 with pFastBacHTb leader (TEV site) (N); made in house; host or cells: Sf9 (baculovirus)

Src = molecular target: T15, Src (Homo sapiens, UniProt P12931); assay: AlphaScreen kinase assay, Src; conditions: read-out: IC50, activity toward kinase Src
T15 construct: P1144. pET-N6 BI-PTP SRC V86-L536-X; made in house

Jnk1 = molecular target: T16, Jnk1 (Homo sapiens, UniProt P45983); assay: AlphaScreen kinase assay, Jnk1; conditions: read-out: IC50, activity toward kinase Jnk1
T16 construct: purchased Upstate Biotechnology

Chain of Akt3 (Q9Y243 whole entry): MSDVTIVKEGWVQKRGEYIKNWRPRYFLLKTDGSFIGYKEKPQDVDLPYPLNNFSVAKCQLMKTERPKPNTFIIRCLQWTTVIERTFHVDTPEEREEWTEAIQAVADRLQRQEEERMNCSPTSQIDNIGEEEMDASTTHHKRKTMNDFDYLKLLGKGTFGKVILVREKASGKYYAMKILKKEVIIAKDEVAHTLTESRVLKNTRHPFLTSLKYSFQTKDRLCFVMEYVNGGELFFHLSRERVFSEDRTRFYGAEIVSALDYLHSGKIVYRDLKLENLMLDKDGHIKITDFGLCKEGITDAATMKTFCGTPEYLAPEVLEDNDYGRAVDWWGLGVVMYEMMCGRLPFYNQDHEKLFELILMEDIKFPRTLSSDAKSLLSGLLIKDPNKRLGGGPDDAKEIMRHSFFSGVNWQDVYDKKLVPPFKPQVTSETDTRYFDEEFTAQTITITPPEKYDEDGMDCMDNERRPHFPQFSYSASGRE
T2 sequence (P15056 with tags, fused parts or gaps V600E): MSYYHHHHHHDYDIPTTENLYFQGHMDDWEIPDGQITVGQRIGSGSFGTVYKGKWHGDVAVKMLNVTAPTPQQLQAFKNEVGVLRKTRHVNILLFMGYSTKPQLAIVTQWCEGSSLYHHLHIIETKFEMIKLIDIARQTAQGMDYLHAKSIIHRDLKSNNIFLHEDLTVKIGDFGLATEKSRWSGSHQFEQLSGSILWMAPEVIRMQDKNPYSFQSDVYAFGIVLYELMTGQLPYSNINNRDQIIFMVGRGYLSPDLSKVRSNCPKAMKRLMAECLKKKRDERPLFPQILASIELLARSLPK
T3 sequence (P35968 20-1356): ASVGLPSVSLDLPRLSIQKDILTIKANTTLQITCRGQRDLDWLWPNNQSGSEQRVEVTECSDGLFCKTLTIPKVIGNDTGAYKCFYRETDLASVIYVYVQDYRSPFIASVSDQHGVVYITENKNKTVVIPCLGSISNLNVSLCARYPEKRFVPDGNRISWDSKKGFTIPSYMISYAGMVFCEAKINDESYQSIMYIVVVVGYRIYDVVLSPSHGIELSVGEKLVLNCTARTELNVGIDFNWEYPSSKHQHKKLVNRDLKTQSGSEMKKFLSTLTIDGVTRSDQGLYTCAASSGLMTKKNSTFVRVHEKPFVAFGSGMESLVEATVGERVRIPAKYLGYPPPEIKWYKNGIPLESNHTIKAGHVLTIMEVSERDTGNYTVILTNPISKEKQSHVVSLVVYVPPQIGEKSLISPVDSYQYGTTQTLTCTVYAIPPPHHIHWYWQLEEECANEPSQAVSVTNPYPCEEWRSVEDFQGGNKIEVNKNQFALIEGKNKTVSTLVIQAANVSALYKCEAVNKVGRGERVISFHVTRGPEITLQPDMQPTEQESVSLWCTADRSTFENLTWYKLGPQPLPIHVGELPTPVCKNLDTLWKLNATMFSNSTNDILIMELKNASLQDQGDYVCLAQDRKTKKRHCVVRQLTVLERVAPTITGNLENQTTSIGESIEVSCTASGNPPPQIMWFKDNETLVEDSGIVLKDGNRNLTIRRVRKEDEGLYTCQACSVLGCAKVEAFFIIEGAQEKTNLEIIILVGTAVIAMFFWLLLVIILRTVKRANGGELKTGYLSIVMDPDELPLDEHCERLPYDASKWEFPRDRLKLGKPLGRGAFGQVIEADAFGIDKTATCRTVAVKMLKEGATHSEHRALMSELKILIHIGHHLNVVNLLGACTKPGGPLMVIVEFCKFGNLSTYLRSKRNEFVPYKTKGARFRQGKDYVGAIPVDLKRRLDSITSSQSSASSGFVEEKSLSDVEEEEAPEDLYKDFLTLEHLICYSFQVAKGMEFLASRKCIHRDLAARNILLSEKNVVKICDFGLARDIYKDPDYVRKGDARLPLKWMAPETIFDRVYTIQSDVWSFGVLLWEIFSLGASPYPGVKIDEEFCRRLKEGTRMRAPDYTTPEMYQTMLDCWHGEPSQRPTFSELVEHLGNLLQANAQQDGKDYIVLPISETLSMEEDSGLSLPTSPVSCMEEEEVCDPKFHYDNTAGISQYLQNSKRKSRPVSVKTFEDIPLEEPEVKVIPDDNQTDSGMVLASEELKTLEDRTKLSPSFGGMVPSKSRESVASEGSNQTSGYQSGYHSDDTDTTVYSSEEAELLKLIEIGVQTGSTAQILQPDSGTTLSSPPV
T11 sequence (P10721 with tags, fused parts or gaps): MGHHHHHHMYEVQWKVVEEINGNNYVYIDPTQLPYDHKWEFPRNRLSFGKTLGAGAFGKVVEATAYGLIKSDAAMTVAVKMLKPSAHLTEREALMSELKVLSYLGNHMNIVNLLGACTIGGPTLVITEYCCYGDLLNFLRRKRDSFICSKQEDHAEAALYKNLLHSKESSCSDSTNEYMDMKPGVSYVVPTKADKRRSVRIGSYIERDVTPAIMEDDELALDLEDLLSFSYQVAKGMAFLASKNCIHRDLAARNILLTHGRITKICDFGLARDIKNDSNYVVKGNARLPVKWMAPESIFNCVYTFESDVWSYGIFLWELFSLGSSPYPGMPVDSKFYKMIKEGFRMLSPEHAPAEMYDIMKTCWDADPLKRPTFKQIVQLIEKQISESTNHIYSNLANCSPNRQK
T12 sequence (P53779 whole entry): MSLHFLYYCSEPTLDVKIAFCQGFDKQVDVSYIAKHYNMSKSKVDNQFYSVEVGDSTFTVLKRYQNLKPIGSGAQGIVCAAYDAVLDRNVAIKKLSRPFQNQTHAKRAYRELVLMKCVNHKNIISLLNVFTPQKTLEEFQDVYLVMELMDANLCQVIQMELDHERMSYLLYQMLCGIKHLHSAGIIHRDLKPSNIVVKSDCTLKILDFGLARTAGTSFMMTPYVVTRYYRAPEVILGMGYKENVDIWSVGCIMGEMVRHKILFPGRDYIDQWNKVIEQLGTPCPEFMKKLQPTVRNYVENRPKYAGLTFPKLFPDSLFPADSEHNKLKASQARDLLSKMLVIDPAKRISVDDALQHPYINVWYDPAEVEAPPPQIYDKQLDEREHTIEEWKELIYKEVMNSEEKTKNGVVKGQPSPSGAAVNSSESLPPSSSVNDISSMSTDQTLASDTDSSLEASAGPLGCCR
T6 sequence (P15056 whole entry): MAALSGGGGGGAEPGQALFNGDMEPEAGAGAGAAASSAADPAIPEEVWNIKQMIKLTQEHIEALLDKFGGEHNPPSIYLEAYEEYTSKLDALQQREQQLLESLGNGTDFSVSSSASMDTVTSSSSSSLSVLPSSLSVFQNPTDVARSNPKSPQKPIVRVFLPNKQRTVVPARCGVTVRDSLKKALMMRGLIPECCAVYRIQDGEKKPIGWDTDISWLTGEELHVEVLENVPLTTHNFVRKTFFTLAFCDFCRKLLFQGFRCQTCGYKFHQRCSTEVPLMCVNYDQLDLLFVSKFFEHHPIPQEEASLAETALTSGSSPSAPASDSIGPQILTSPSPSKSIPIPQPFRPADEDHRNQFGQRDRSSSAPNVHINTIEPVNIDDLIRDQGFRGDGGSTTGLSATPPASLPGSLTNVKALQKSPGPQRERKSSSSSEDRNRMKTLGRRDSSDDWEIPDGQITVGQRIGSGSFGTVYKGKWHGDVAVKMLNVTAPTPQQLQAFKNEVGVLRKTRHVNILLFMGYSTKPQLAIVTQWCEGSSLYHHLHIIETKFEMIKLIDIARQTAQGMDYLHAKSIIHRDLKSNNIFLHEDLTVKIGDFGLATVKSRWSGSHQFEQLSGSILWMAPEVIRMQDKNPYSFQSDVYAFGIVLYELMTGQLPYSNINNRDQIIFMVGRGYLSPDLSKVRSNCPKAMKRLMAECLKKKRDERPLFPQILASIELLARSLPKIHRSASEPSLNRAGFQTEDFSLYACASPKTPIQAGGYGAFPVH
T9 sequence (P07333 20-972): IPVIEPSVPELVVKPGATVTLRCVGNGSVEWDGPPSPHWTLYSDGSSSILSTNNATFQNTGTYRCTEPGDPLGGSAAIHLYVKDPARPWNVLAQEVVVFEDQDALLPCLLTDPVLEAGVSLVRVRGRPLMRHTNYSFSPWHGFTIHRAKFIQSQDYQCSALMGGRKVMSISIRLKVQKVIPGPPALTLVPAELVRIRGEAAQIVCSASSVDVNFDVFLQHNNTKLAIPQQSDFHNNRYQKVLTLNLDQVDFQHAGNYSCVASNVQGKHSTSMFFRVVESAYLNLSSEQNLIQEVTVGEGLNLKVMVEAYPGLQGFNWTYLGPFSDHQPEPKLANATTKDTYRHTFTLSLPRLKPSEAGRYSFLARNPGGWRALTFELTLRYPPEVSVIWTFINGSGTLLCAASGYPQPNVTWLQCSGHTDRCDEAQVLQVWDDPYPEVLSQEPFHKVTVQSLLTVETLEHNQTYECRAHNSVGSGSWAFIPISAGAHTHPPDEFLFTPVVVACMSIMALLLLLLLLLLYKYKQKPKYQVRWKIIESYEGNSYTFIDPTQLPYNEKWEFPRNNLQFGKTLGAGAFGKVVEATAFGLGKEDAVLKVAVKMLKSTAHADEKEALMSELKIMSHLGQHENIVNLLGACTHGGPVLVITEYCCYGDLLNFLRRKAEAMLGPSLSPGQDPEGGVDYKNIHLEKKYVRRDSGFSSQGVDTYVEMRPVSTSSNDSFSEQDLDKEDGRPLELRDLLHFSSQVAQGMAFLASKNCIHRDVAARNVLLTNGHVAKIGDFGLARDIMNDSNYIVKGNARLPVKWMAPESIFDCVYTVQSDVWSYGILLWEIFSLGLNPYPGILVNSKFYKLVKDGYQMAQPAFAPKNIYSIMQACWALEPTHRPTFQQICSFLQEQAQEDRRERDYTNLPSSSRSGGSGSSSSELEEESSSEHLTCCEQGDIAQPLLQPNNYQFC
T14 sequence (Q05397 411-686): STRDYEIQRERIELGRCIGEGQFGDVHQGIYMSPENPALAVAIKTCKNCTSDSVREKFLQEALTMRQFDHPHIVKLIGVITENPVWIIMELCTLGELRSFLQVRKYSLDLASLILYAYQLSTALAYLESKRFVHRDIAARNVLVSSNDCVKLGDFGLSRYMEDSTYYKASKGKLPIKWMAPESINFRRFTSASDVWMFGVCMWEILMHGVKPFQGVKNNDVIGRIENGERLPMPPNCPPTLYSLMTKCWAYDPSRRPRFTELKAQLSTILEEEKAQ

| Compound | IC50 (Itk) | IC50 (B-Raf V600E) | IC50 (Kdr) | IC50 (Akt3) | IC50 (B-Raf) | IC50 (Fms) | IC50 (Kit) | IC50 (Jnk3) | further results |
| --- | --- | --- | --- | --- | --- | --- | --- | --- | --- |
| c1cc(-c2ccc(N3CCNCC3)nc2)c2cc[nH]c2n1 [Compound P-0270] |  |  | ≤ 10 µM | ≤ 10 µM |  |  |  |  | IC50 (IKK beta): ≤ 10 µM; IC50 (PKC theta): ≤ 10 µM |
| CS(=O)(=O)c1cccc(-c2cnc3[nH]ccc3c2)c1 [Compound P-0173, 5-(3-Methanesulfonyl-phenyl)-1H-pyrrolo[2,3-b]pyridine] | ≤ 10 µM |  | ≤ 10 µM |  |  |  |  |  | IC50 (Stk6): ≤ 10 µM |
| c1cc2cc(Nc3ccc(N4CCCCC4)cc3)cnc2[nH]1 [Compound P-1016] | ≤ 10 µM | ≤ 10 µM |  | ≤ 10 µM |  |  | ≤ 10 µM | ≤ 10 µM |  |
| NC(=O)c1cccc(-c2cnc3[nH]cc(Cc4ccccc4O)c3c2)c1 [Compound P-1385] | ≤ 10 µM | ≤ 10 µM |  |  | ≤ 10 µM | ≤ 10 µM | ≤ 10 µM | ≤ 10 µM | IC50 (FGFR1): ≤ 10 µM; IC50 (Fak): ≤ 10 µM; IC50 (Src): ≤ 10 µM; IC50 (Jnk1): ≤ 10 µM |

Second part, led by results:

| IC50 (Itk) | IC50 (B-Raf V600E) | IC50 (Kdr) | IC50 (Akt3) | IC50 (B-Raf) | IC50 (Fms) | IC50 (Kit) | IC50 (Jnk3) | Compound | further results |
| --- | --- | --- | --- | --- | --- | --- | --- | --- | --- |
| ≤ 10 µM | ≤ 10 µM |  |  |  |  |  |  | Brc1ccc(Nc2cnc3[nH]ccc3c2)cc1 [Compound P-1067] |  |
| ≤ 10 µM |  |  | ≤ 10 µM | ≤ 10 µM | ≤ 10 µM |  |  | c1cc(Nc2ccc(N3CCCCC3)cc2)c2cc[nH]c2n1 [Compound P-0883] | IC50 (Pyk2): ≤ 10 µM; IC50 (c-Raf-1): ≤ 10 µM |
